Each structure is given as a SMILES string. Where two headings read alike, the source gives them in different places. Some results are limits rather than exact numbers.

We go through 20 compounds from patent publication US20220009914A1, “Analogs of Nitrofuran Antibiotics to Combat Resistance” (The Trustees of Indiana University, priority 2020, published 2022).

One assay concerns the target T1, E. coli GroEL/ES (Escherichia coli, UniProt P0A6F5).
T1 construct: made in house; host or cells: GroEL in NEB 5-alpha E. coli; GroES in E. coli BL21 (DE3)
In words: GroEL/ES-mediated dMDH refolding assay. Format: biochemical. The method, then:
Evaluating compounds for inhibition in the GroEL/ES-mediated dMDH refolding assay. All compounds were evaluated for inhibiting E. coli GroEL/ES-mediated refolding of the denatured MDH reporter enzyme. Reagent preparation: For these assays, four primary reagent stocks were prepared: 1) GroEL/ES-dMDH binary complex stock; 2) ATP initiation stock; 3) EDTA quench stock; 4) MDH enzymatic assay stock. Denatured MDH (dMDH) was prepared by 2-fold dilution of MDH (5 mg/ml, soluble pig heart MDH from Roche, product #10127248001) with denaturant buffer (7 M guanidine-HCl, 200 mM Tris, pH 7.4, and 50 mM DTT). MDH was completely denatured by incubating at room temperature for >45 min. The binary complex solutions were prepared by slowly adding the dMDH stock to a stirring stock with GroEL and GroES in folding buffer (50 mM Tris-HCl, pH 7.4, 50 mM KCl, 10 mM MgC2, and 1 mM DTT). […] For the ATP initiation stock, ATP solid was diluted into folding buffer to a final concentration of 2.5 mM. Quench solution contained 600 mM EDTA (pH 8.0). The MDH enzymatic assay stock consisted of 20 mM sodium mesoxalate and 1.6 mM NADH in reaction buffer (50 mM Tris-HCl, pH 7.4, 50 mM KCl, and 1 mM DTT).
Assay Protocol: First, 30 μL aliquots of the GroEL/ES-dMDH binary complex stocks were dispensed into clear, 384-well polystyrene plates. […] The chaperonin-mediated refolding cycles were initiated by addition of 20 μL of ATP stock (reagent concentrations during refolding cycle: 50 nM GroEL, 60 nM GroES, 12 nM dMDH, 1 mM ATP, and compounds of 100 μM to 46 nM, 3-fold dilution series) and the refolding reactions were incubated at 37° C. […] Next, the assay was quenched by addition of 10 μL of the EDTA stock to give a final concentration of 100 mM in the wells. […] A340 nm measurements were recorded at 0.5 minutes (start point) and at successive time points until the amount of NADH consumed reached ˜90% (end point, generally between 20-35 minutes).
Evaluating analogs for inhibiting GroEL/ES-mediated substrate refolding functions. […] We first evaluated all test compounds in our standard GroEL/ES-mediated refolding assays that employ either malate dehydrogenase (MDH) or rhodanese (Rho) as the denatured substrate reporter enzymes. When denatured, these enzymes are efficiently folded by GroEL/ES in the absence of inhibitors, and thus act as reporters to determine the degree of inhibition against the bacterial chaperonin system. Inhibition was examined in the presence of these two orthogonal substrates in order to support that GroEL/ES inhibitors were on-target. To further support on-target effects against GroEL/ES, we counter-screened for inhibition of the native MDH and Rho enzymatic reporter reactions, where test compounds were added after the denatured MDH and Rho substrate enzymes were completely refolded by GroEL/ES.

Assay [1] relates to Klebsiella pneumoniae strain NCTC 9633 (ATCC #13883). In words: bacterial proliferation assay, K. pneumoniae. Format: cell-based. The following applies: for EC50: Klebsiella pneumoniae, read-out: Bacterial Proliferation EC50 K. pneumoniae. The method, then:
(§1) All compounds were evaluated for inhibiting the proliferation of E. coli and each of the ESKAPE bacteria. Results presented represent the averages of EC50 values obtained from at least four replicates. Evaluating compounds for inhibition of bacterial cell proliferation.
(§2) Growth Media: E. coli were grown with LB medium and all ESKAPE bacteria were grown in Brain Heart Infusion (BHI) medium (Becton, Dickinson and Company), with all liquid cultures supplemented with 25 mg/L Ca^2+ and 12.5 mg/L Mg^2+ to mimic physiological free concentrations of these cations. A 10 mg/mL Ca^2+ stock solution was prepared by dissolving 1.84 g of CaCl2.2H2O in 50 mL of deionized water, and a 10 mg/mL Mg^2+ stock solution was prepared by dissolving 4.18 g of MgCl2.6H2O in 50 mL deionized water—filter sterilized using 0.2 μm cellulose-acetate filters. 2.5 mL of the sterile 10 mg/mL Ca^2+ stock and 1.25 mL of the sterile 10 mg/mL Mg^2+ stock solutions were added per 1 L of autoclaved LB or BHI media to obtain 25 mg/L Ca^2+ and 12.5 mg/L Mg^2+ ions, respectively.
(§3) General Assay Protocol: Stock bacterial cultures were streaked onto LB or BHI agar plates and grown overnight at 37° C. Fresh aliquots of cation supplemented media were inoculated with single bacterial colonies and the cultures were grown overnight at 37° C. with shaking (240 rpm). The following morning, cultures were diluted 10-fold into fresh media and grown at 37° C. until bacteria had reached mid-log phase growth (OD600˜0.4-0.6). The cultures were then diluted into fresh media to achieve final OD600 readings of 0.017. Aliquots of these diluted cultures (30 μL) were added to clear, flat-bottom 384-well polystyrene plates that were previously stamped with 0.5 μL of test compounds in 20 μL of media (yielding initial OD600=0.01 bacterial cultures). All compounds were tested in dose-response with concentration ranges during the proliferation assays from 100 μM to 46 nM (3-fold dilution series). A second set of baseline control plates were prepared analogously, but without any bacteria added, to correct for possible compound absorbance and/or precipitation. […] Plates were then read at 600 nm using a Molecular Devices SpectraMax Plus384 microplate reader. […] Results presented represent the averages of EC50 values obtained from at least four replicates.
(§4) Evaluating analogs for inhibiting the growth of E. coli and the ESKAPE bacteria. Analogs were initially tested for antibacterial efficacy against representative strains of antibiotic-sensitive E. coli and the ESKAPE bacteria. To determine compound efficacy, bacterial proliferation assays were carried out in liquid media culture supplemented with physiological concentrations of free calcium and magnesium cations. For these assays, bacterial cultures (OD600=0.01) were exposed to test compounds in 8-point, 3-fold dilution series (100 μM to 46 nM concentration range), in 384-well plates. After addition of compounds to cultures, the plates were sealed with Breathe-Easy gas permeable membranes and allowed to grow to mid-log phase (OD600˜0.4-0.6), whereupon final OD600 readings were taken to assess for bacterial growth and inhibition.

Assay [2] concerns Pseudomonas aeruginosa strain NCTC 10332 (ATCC #10145). As to the kind of experiment: bacterial proliferation assay, P. aeruginosa. Format: cell-based. The settings on record: read-out: Bacterial Proliferation EC50 P. aeruginosa. The method, then:
as §1, §2, §3, §4

Setting [3] is: without NfsB nitroreductase, read-out: GroEL/ES-dMDH Refolding IC50.

T1 sequence (P0A6F5 2-548): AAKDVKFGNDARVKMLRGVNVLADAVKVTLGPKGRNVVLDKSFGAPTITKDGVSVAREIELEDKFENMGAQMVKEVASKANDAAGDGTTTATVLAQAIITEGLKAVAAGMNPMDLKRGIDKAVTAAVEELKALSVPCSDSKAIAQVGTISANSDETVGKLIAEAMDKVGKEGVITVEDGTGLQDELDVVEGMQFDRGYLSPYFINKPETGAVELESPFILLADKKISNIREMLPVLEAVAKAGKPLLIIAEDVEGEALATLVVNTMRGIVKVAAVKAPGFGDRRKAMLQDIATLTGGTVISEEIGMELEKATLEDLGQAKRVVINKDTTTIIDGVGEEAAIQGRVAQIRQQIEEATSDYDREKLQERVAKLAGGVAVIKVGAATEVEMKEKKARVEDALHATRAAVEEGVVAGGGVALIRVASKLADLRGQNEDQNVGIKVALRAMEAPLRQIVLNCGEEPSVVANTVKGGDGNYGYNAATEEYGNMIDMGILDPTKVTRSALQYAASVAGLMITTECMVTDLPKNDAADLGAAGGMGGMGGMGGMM

In the case of `O=C(N/N=C/c1ccc(O)cc1)c1ccccc1` [Compound 36, N′-(4-hydroxybenzylidene)benzohydrazide], the IC50 on E. coli GroEL/ES was over 100 µM. The EC50 in assay [1] and in assay [2] was over 100 µM in each case.

In the case of `O=Cc1ccc(O)c2ncccc12` [Compound 40, reference compound], the IC50 at E. coli GroEL/ES (setting [3]) was over 100 µM. Moreover, the EC50 in assay [1] was 15 µM; in assay [2], over 100 µM.

In the case of `O=C(N/N=C/c1ccc([N+](=O)[O-])o1)c1cccc2ccccc12` [Compound 22, N′-((5-nitrofuran-2-yl)methylene)-1-naphthohydrazide], the IC50 on E. coli GroEL/ES turned out to be 82 µM. The EC50 in assay [1] and in assay [2] was over 100 µM throughout.

As for `CCOc1ccc(S(=O)(=O)Nc2ccc(C(=O)N/N=C/c3ccc(O)c4ncccc34)cc2)cc1` [Compound 15, 4-ethoxy-N-(4-(2-((8-hydroxyquinolin-5-yl)methylene)hydrazine-1-carbonyl)phenyl)benzenesulfonamide], the IC50 at E. coli GroEL/ES came out at 6 µM. Besides, the EC50 in assay [1] and in assay [2] was over 100 µM throughout.

Take `O=Cc1ccc([N+](=O)[O-])o1` [Compound 41, reference compound]: on E. coli GroEL/ES, the IC50 was 78 µM. The EC50 in assay [1] is 10 µM; in assay [2], over 100 µM.

Consider `COc1ccc(C(=O)N/N=C/c2ccccc2)cc1` [Compound 37, N′-benzylidene-4-methoxybenzohydrazide], for which the IC50 on E. coli GroEL/ES is over 100 µM. The EC50 in assay [1] and in assay [2] was over 100 µM throughout.

Turning to `COc1ccc(C(=O)N/N=C/c2cccc3ccccc23)cc1` [Compound 33, 4-methoxy-N′-(naphthalen-1-ylmethylene)benzohydrazide], the IC50 against E. coli GroEL/ES was over 100 µM. In addition, the EC50 in assay [1] and in assay [2] was over 100 µM each time.

As for `O=C1CN(/N=C/c2ccc(O)c3ncccc23)C(=O)N1` [Compound 2, 1-(((8-hydroxyquinolin-5-yl)methylene)amino)imidazolidine-2,4-dione], at E. coli GroEL/ES, the IC50 is over 100 µM. Besides, the EC50 in assay [1] and in assay [2] was over 100 µM each time.

For `CCN(CC)S(=O)(=O)c1cccc(C(=O)N/N=C/c2ccc(O)c3ncccc23)c1` [Compound 12, N,N-diethyl-3-(2-((8-hydroxyquinolin-5-yl)methylene)hydrazine-1-carbonyl)benzenesulfonamide], the IC50 at E. coli GroEL/ES came out at 19 µM. Besides, the EC50 is over 100 µM in assay [1] and 85 µM in assay [2].

For the compound `O=C(N/N=C/c1ccc(O)c2ncccc12)c1ccccc1` [Compound 5, N′-((8-hydroxyquinolin-5-yl)methylene)benzohydrazide], the IC50 against E. coli GroEL/ES was over 100 µM. Further, the EC50 in assay [1] was 82 µM; in assay [2] it was over 100 µM.

In turn, `O=C(N/N=C/c1ccc(O)c2ncccc12)c1ccc(NS(=O)(=O)c2ccc(Br)cc2)cc1` [Compound 14, 4-bromo-N-(4-(2-((8-hydroxyquinolin-5-yl)methylene)hydrazine-1-carbonyl)phenyl)benzenesulfonamide] registered an IC50 against E. coli GroEL/ES of 14 µM. Also, the EC50 in assay [1] and in assay [2] was over 100 µM each time.

On to `O=C(N/N=C/c1ccc([N+](=O)[O-])o1)c1ccc(Cl)s1` [Compound 17, 5-chloro-N′-((5-nitrofuran-2-yl)methylene)thiophene-2-carbohydrazide], for which, on E. coli GroEL/ES (setting [3]), the IC50 was determined as 88 µM. In assay [1], the “inhibition of K. pneumoniae in words” value is “moderate inhibitors” and the EC50 was determined as 19 µM. Further, the EC50 in assay [2] is over 100 µM.

As for `O=C(N/N=C/c1ccc(O)c2ncccc12)c1cccc2ccccc12` [Compound 9, N′-((8-hydroxyquinolin-5-yl)methylene)-1-naphthohydrazide], the IC50 on E. coli GroEL/ES worked out at 13 µM. Besides, the EC50 in assay [1] and in assay [2] was over 100 µM each time.

The compound `O=C(N/N=C/c1cccc2ncccc12)c1ccccc1` [Compound 32, N′-(quinolin-5-ylmethylene)benzohydrazide] registered an IC50 against E. coli GroEL/ES of over 100 µM. Besides, the EC50 in assay [1] and in assay [2] was over 100 µM each time.

`COc1ccc(C(=O)N/N=C/c2ccco2)cc1` [Compound 39, N′-(furan-2-ylmethylene)-4-methoxybenzohydrazide]: the IC50 on E. coli GroEL/ES is over 100 µM. Further, the EC50 in assay [1] and in assay [2] was over 100 µM each time.

On E. coli GroEL/ES, `O=C(N/N=C/c1ccc(O)c2ncccc12)c1ccc(Cl)s1` [Compound 4, 5-chloro-N′-((8-hydroxyquinolin-5-yl)methylene)thiophene-2-carbohydrazide] registered an IC50 of 9.6 µM. The EC50 in assay [1] and in assay [2] was over 100 µM each time.

With `O=C(N/N=C/c1ccc([N+](=O)[O-])o1)c1ccc(O)cc1` [Nifuroxazide, reference compound], the IC50 at E. coli GroEL/ES is over 100 µM. In addition, the EC50 in assay [1] is 37 µM; in assay [2], over 100 µM.

Consider `COc1ccc(C(=O)N/N=C/c2cccc3ncccc23)cc1` [Compound 31, 4-methoxy-N′-(quinolin-5-ylmethylene)benzohydrazide], for which the IC50 against E. coli GroEL/ES was over 100 µM. Moreover, the EC50 in assay [1] and in assay [2] was over 100 µM each time.

`CCN(CC)S(=O)(=O)c1cccc(C(=O)N/N=C/c2ccc([N+](=O)[O-])o2)c1` [Compound 25, N,N-diethyl-3-(2-((5-nitrofuran-2-yl)methylene)hydrazine-1-carbonyl)benzenesulfonamide] displayed an IC50 against E. coli GroEL/ES of 90 µM. For the same compound, the EC50 in assay [1] and in assay [2] was over 100 µM each time.

Compound `O=C(N/N=C/c1ccc(O)c2ncccc12)c1ccc(O)cc1` [Compound 7, 4-hydroxy-N′-((8-hydroxyquinolin-5-yl)methylene)benzohydrazide] displayed an IC50 at E. coli GroEL/ES of 43 µM. The EC50 was 87 µM in assay [1] and over 100 µM in assay [2].
